The test system of assay [1] is human mesenchymal stem cells. As to the kind of experiment: GeneChip analysis using human mesenchymal stem cells. Format: cell-based. Conditions: for aggrecan expression level: 10 ng/ml TGF-β3; for expression levels of Sox9 compared with the control group: 24 hours and 96 hours after the addition. As to the method:
Human mesenchymal stem cells were seeded in a 6-well plate (Nunc) at 1×10^5 cells/well, the culture supernatant was discarded 96 hours later, and 2 ml of a cartilage differentiation induction medium was added. The control group, the 40 μM peptide D group, the 10 ng/ml TGF-β3 group, and the 40 μM peptide D+10 ng/ml TGFβ3 group were prepared. Each culture medium was replaced 24 hours after the stimulation. The cells were dissolved in 1 ml of TRIZOL (Invitrogen) 96 hours after the stimulation, and RNA was isolated. The isolated RNA was used for GeneChip analysis (Affimetrix, Kurabo).

For assay [2], the system named is human mesenchymal stem cells. Briefly: Induction of human mesenchymal stem cell differentiation, alcian blue staining. It is filed as cell-based. Conditions: 100 μM peptide D, 14 days. As to the method:
Human mesenchymal stem cells were seeded at 5×10^4 cells/well in 48-well plate (IWAKI). The culture supernatant was removed 24 hours later, the medium was replaced with a chondrocyte differentiation induction medium (Lonza), and the medium was replaced with fresh medium every 3 or 4 days. Simultaneously, peptide D was added at 100 μM (the group to which peptide D was administered). Further, a group cultured with 100 μM peptide D and 1 ng/ml BMP-4 (R&D) was examined. BMP-4 was added at 1 ng/ml as a positive control group. After 14 days, these cells were fixed in 10% neutral buffered formalin. After fixation, the cells were stained with an alcian blue solution for 4 hours, and the culture plate was photographed. Moreover the pigment was eluted using a 6M guanidinium hydrochloride solution from the culture plate. The eluate (100 μl) was moved to a new 96-well plate, and measured the absorbance at 620 nm by microplate reader (BMG Labtech).

The test system of assay [3] is ATDC5 cells. Briefly: RT-PCR analysis of chondrocytic factors in ATDC5 cells. Format: cell-based, mouse. Conditions: 200 μM peptide D. As to the method:
Mouse prechondrocytes, ATDC5 cells (5×10^4 cells) were seeded in a 6-cm dish (IWAKI) and cultured in the presence of a cartilage differentiation induction medium containing 10 ng/ml insulin and transferrin for 7 days and for 14 days. The peptide D group was added at 200 μM peptide D, and 5 ng/ml of BMP-4 was added to the positive control group. The cells were washed with PBS after culture, the cells were dissolved in 1 ml TRIZOL […], and the solution was obtained. After 5 min at room temperature, 0.2 ml of chloroform (Wako) was added, followed by vigorous inversion mixing and centrifugation at 4° C. and 12,000×g for 15 minutes. The supernatant was collected in a new tube, and was added to 0.5 ml of isopropanol (Nacalai), followed by inversion mixing. The resultant was left at room temperature for 10 minutes and centrifuged at 4° C. and 12,000×g for 10 minutes. The supernatant was discarded, and the resultant was added to 70% ethanol. After dry-up, RNA was dissolved in 87.5 μl of DEPC water, 10 μl of RDD buffer and 2.5 μl of DNase, and the mixture was allowed to stand at room temperature for 10 minutes. The RNA sample was cleaned by the RNeasy MinElute Cleanup Kit (Qiagen), and the concentration of the obtained RNA was measured using NanoDrop. The obtained RNA (250 ng) was electrophoresed on 1% agarose gel, checked degradation of RNA, and undegradated RNA samples (250 ng each) were used in RT-PCR. RT-PCR was carried out using the ThermoScript RT-PCR System (Invitrogen) and random primers.
After cDNA was synthesized, PCR was carried out using primers specific for the α1 chains of mouse type II collagen (mCol 2α1), mouse type X collagen (mCol X), and mouse aggrecan (mAggrecan). PCR was carried out using mouse GAPDH-specific primers for standardization. The sequences of PCR primers used are shown below. […]
The sample obtained after PCR was electrophoresed on 2% agarose gel, and a specific band was detected by UV with the use of ethidium bromide staining (FIG. 3A and FIG. 4A). The obtained image was analyzed using the CSAnalyzer (ATTO).

Assay [4] relates to ATDC5 cells. As to the kind of experiment: GeneChip analysis using ATDC5 cells. It is filed as cell-based, mouse. Particulars: 100 μM peptide D, signal ratio to control group. As to the method: The peptide described in Example 1 was used. The ATDC5 cells described in Example 2 were used as cultured cells. The ATDC5 cells were seeded in a 6-cm dish (IWAKI) at 1×10^5 cells/well. The culture supernatant was removed 72 hours later, and DMEM/F-12 medium containing 10 ng/ml insulin (Roche) and 10 ng/ml transferrin (Roche) was added. The medium was replaced with fresh medium every 3 or 4 days.
Simultaneously, peptide D was added at 100 μM. The medium was removed 4 days and 7 days after the induction of differentiation. The cells were washed with PBS, and RNA of these cells was obtained using the Absolutely RNA Miniprep Kit (Stratagene) 7 days after the induction of differentiation. The extracted RNA was subjected to GeneChip analysis (Affimetrix, Kurabo).

Assay [5] relates to ATDC5 cells. Briefly: Induction of differentiation of ATDC5 cells by peptide D, alcian blue staining. Particulars: peptide D 25 μM and 100 μM, 14 days. It is filed as cell-based, mouse. As to the method:
The culture cells (ATDC5) derived from a mouse chondrogenic EC (embryonal carcinoma) cell was provided by Professor Hiraki and Associate Professor Shukunami in the Institute for Frontier Medical Sciences, Kyoto University. DMEM/F-12 medium (Cellgro) containing 5% FBS (Nichirei) was used as a maintenance medium.
ATDC5 cells were seeded at 2×10^4 cells/well in a 48-well plate (IWAKI). The culture supernatant was removed 24 hours later, and DMEM/F-12 medium containing 10 ng/ml insulin (Roche) and transferrin (Roche) were added. The medium was replaced with fresh medium every 3 or 4 days.
Simultaneously, peptide D was added at 25 μM and 100 μM. One ng/ml and 5 ng/ml BMP-4 (R&D) were added as positive control. In order to examine the synergistic effects of peptide D and BMP-4, further, 25 μM peptide D and 1 ng/ml BMP-4 were added. After 14 days, these cells were fixed in 10% neutral buffered formalin. After fixation, the cells were stained with an alcian blue solution for 4 hours, and the culture plate was photographed.

Assay [6] deals with T1, RANKL (Homo sapiens, UniProt O14788).
T1 sequence (O14788 140-317 limits assumed): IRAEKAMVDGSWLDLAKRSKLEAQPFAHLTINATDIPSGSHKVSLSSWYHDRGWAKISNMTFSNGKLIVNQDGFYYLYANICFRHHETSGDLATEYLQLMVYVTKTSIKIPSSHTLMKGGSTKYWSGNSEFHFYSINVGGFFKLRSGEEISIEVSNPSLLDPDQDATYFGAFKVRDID
Particulars: Aoki et al., J. Clin. Invest., 116: 1525, 2006; cited from earlier work.

Assay [7] has as its system human mesenchymal stem cells. As to the kind of experiment: Three-dimensional culture using human mesenchymal stem cells. It is filed as cell-based. As to the method: Chondrocytes are three-dimensionally cultured induce […]. Three dimensional culture system relatively reflected the natural conditions. Human mesenchymal stem cells were seeded at 2.5×10^5 cells in 15-ml tubes (TPP) and the cells were collected by centrifuged at 1,000 rpm and room temperature for 4 minutes. The supernatant was removed and the medium was replaced with 0.5 ml chondrocyte differentiation induction medium (Lonza) with 10 ng/ml TGF-β3 (R&D). The medium was replaced with fresh medium every 3 or 4 days. Simultaneously, peptide D was added at 50 μM and at 150 μM (i.e., a low-dose peptide D group and a high-dose peptide D group). After 14 days, the cells were fixed in 4% PFA (Wako), photographed under a microscope (FIG. 8). A pellet was embedded in paraffin, and the sample slide was prepared, followed by alcian blue staining and safranin 0 staining (FIG. 9).
2.5×10^5 human mesenchymal stem cells were cultured in the presence of 40 μM peptide D and 10 ng/ml TGF-β3 with cartilage differentiation induction medium for 21 days. After the pellets were fixed in 4% PFA, the pellet was photographed under a microscope (FIG. 10). After the pellet had been embedded in paraffin, the sample slide was prepared and stained with alcian blue and safranin 0 (FIG. 11).
After the pellets were fixed in 4% PFA, the pellet was photographed under a microscope (FIG. 12). After the pellet had been embedded in paraffin, the sample slide was prepared and stained with alcian blue and safranin O (FIG. 13).

[8] abbreviates: 24 hours after the addition, 40 μM peptide D.
[9] abbreviates: 96 hours after the addition, 40 μM peptide D.
Setting [10] is: peptide D 50 μM and 150 μM, medium with 10 ng/ml TGF-β3, 14 days.

Positions of bridges follow the written chain, without caps; N, C: chain ends. No end group written: not given here.

Here are results for two molecules from patent US9435811B2, “Inducer of chondrocyte proliferation and differentiation” (ORIENTAL YEAST CO., LTD, priority 2008, dated 2016).

Take “peptide D: cyclic peptide of 9 amino acid residues, SEQ ID NO: 7, two cysteine residues bound by a disulfide bond; binds to RANKL (YCWSQYLCY; disulfide 2-8 (inferred))”: in assay [1] (40 μM peptide D, 24 hours later), the “IGF2R and versican expression” value is on record as “elevated”. Further, the “IGF-1, LTBP2, and TGFβ1 expression levels” value in assay [1] (40 μM peptide D, 96 hours later) is reported as “elevated”. The aggrecan expression level result in assay [1] (setting [8]) is given as “elevated”. Further, in assay [1], the “expression levels of Sox9 compared with the control group” value was “elevated”. In addition, in assay [1] (setting [9]), the aggrecan expression level entry is “elevated expression level was maintained”. The “absorbance of the eluate at 620 nm (alcian blue pigment) versus control group” value in assay [2] is recorded as “significant increase”. In assay [2] (chondrocyte differentiation induction medium), the “alcian blue positive cells compared with control” value is “increased”. In addition, in assay [3] (day 7, standardized with GAPDH), the aggrecan expression level result is listed as “increased” and the “expression level of the α chain of type II collagen compared with the control” value is recorded as “significantly increased”. Besides, the “expression level of type X collagen” value in assay [3] (day 14, standardized with GAPDH) is recorded as “particularly increased”. In addition, in assay [4], the “expression level of BMP-7” value was “increased”; the “expression levels of CTGF, PDGF, TGFβ1, fibromodulin and receptors (PDGFR1, FGFR2)” value was “increased”; the “expression levels of the α chains of type II, IX, and XI collagens” value is “increased”; the “expression of asporin, IGFbp2, IGFbp6, and ADAMTS5” value is listed as “inhibited”. Also, the “number of alcian blue positive nodules” value in assay [5] is given as “increased in a dose dependent manner”. Moreover, the “binding to RANKL” value in assay [6] is on record as “binds to RANKL”. For the same molecule, in assay [7] (setting [10]), the “alcian blue or safranin O staining of 3-dimensional pellets” value is reported as “positive stained” and the pellet size entry is given as “increased the pellet size in a dose dependent manner”.

B1: TGF-β3: TGF-β3 (R&D), protein belonging to the TGF-β superfamily (protein, UniProt P10600 301-412, looked up)
Transforming growth factor …: ALDTNYCFRNLEENCCVRPLYIDFRQDLGWKWVHEPKGYYANFCSGPCPYLRSADTTHSTVLGLYNTLNPEASASPCCVPQDLEPLTILYYVGRTPKVEQLSNMVVKSCKCS
With B1, the aggrecan expression level result in assay [1] (setting [8]) is on record as “equivalent to that of the control group”; in assay [1] (setting [9]), “lower than that of the control group”. Also, the “expression levels of Sox9 compared with the control group” value in assay [1] is on record as “elevated”. In assay [7] (21 days, 40 μM peptide D, 10 ng/ml TGF-β3, 100 ng/ml BMP-2), the pellet size result is reported as “did not change”.
